Results on 19 compounds are retold here after patent US20140005163A1 (NOVARTIS AG, priority 2010, published 2014).

≈ marks a conversion by molar mass, not a printed value. Bounds are passed on as bounds.

As a reminder, the IC50 is the concentration needed to halve the response being measured. By solubility is commonly meant how much of the substance goes into solution per volume.

In data set [1] the target is T1, mTOR (Homo sapiens, UniProt P42345).
T1 construct: purchased Invitrogen Corporation (Carlsbad/CA, USA) PV4753
T1 sequence (P42345 1360-2549 limits assumed): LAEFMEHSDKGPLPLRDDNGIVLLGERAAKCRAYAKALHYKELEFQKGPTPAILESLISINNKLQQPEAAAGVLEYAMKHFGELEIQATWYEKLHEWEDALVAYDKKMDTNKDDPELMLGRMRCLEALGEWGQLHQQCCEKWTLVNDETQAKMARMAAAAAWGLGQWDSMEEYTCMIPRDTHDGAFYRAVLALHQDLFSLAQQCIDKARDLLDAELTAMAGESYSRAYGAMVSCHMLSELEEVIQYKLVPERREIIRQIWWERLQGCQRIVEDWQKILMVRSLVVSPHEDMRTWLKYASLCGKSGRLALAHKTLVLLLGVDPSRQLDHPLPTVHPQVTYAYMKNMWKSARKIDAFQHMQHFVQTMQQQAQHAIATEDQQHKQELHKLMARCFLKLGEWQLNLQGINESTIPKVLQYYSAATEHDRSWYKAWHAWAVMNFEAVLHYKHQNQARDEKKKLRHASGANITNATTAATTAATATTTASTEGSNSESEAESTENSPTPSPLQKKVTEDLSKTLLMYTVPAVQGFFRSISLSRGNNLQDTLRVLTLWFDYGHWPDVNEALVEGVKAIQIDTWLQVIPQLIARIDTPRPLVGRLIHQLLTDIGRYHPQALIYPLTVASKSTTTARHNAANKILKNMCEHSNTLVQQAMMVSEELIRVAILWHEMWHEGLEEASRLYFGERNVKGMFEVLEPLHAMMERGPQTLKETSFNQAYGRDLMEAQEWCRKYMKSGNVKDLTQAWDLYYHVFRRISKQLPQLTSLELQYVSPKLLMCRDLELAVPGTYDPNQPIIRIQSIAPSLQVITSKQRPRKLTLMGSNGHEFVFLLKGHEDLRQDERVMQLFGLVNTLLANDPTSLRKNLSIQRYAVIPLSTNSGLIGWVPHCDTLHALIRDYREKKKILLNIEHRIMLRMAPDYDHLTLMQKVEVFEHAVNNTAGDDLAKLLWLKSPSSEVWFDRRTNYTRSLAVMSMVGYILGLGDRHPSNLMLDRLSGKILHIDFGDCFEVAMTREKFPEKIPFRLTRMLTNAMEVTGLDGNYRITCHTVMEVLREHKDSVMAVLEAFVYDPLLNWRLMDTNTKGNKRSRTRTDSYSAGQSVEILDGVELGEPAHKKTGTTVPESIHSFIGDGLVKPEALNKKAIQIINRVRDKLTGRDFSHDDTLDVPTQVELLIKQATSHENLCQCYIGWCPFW
The experiment in a line: Biochemical assay for m-TOR by TR-FRET. The note with it: 8 μM ATP, 400 nM GFP-4EBP1, 0.5 nM mTOR. The method, boiled down:
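Steps: ATP (8 μM final) plus GFP-4EBP1 (400 nM final) combined with mTOR (0.5 nM final), incubated at rt; buffer HEPES pH 7.5 with 10 mM MnCl2, NaCl, EGTA, DTT. Then stopped with EDTA/Tb3+-anti-p4EBP1 pT46 Ab (0.5 nM). Plates read after 15 min.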
(In TR-FRET formats the signal depends on donor and acceptor labels being close together.)

The target in data set [2] is T2, PI3K delta (Homo sapiens, UniProt O00329).
T2 construct: for the full-length p110-d subunit are generated and fused by overlapping PCR; p85(iSH2) fusion partner (see partner chain) (N); His tag (C); made in house; host or cells: baculovirus; Tn5 (Trichoplusia ni) or TiniPro insect cells
T2 sequence (O00329 with tags, fused parts or gaps limits assumed): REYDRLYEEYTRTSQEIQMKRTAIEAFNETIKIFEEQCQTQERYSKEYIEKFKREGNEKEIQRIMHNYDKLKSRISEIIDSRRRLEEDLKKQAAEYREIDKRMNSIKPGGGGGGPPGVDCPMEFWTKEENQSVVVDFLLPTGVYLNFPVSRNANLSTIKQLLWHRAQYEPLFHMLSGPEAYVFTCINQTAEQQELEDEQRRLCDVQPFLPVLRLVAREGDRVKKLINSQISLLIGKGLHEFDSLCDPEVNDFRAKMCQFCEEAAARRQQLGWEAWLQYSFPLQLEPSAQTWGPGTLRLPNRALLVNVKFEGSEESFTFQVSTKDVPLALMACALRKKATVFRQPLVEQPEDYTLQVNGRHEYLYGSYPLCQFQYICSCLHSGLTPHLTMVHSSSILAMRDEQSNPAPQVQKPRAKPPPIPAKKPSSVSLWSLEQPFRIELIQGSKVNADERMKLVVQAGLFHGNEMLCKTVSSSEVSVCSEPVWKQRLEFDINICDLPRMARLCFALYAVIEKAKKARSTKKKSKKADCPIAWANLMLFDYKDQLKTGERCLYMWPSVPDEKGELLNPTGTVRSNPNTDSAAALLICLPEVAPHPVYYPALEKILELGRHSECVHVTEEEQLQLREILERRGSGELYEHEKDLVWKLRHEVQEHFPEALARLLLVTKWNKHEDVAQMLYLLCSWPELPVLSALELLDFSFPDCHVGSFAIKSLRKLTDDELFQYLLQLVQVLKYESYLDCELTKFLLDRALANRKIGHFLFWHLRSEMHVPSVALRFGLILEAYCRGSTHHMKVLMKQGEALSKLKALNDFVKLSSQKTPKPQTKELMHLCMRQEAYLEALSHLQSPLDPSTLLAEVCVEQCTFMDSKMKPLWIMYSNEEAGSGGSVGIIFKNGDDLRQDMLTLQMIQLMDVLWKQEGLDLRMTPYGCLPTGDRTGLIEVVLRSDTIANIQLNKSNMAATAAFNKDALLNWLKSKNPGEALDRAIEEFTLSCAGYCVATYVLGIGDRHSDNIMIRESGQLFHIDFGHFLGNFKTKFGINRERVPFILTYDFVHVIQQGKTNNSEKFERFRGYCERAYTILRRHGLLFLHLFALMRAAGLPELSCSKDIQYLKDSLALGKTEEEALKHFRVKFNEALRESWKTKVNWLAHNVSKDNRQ
The experiment in a line: PI3K delta kinase assay (Kinase-Glo luminescence). The data set is classed as biochemical. The method, boiled down:
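Lipid kinase activity of a His-tagged p110δ full-length/p85 iSH2 fusion (10 nM) toward bovine liver phosphatidylinositol (10 μg/mL) at 1 μM ATP, pH 7.5, 60 min, room temperature. ATP consumption is quantified by luciferase-based luminescence. Four-parameter logistic fitting gives IC50.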
Background: Kinase-Glo reads ATP consumption through a luciferase reaction.

Data set [3] in a line: Solubility at pH 6.8. The data set is classed as physicochemical. Conditions: pH 6.8, aqueous buffer, thermodynamic from solid; read-out: solubility. Put shortly: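 Solubility was measured at pH 6.8 following the cited Zhou et al. (2007) procedure.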
In data set [4] the target is T3, PI3K beta (Homo sapiens, UniProt P42338).
T3 construct: for the full-length p110-b subunit are generated and fused by overlapping PCR; p85(iSH2) fusion partner (see partner chain) (N); His tag (C); made in house; host or cells: baculovirus; Tn5 (Trichoplusia ni) or TiniPro insect cells
T3 sequence (P42338 with tags, fused parts or gaps limits assumed): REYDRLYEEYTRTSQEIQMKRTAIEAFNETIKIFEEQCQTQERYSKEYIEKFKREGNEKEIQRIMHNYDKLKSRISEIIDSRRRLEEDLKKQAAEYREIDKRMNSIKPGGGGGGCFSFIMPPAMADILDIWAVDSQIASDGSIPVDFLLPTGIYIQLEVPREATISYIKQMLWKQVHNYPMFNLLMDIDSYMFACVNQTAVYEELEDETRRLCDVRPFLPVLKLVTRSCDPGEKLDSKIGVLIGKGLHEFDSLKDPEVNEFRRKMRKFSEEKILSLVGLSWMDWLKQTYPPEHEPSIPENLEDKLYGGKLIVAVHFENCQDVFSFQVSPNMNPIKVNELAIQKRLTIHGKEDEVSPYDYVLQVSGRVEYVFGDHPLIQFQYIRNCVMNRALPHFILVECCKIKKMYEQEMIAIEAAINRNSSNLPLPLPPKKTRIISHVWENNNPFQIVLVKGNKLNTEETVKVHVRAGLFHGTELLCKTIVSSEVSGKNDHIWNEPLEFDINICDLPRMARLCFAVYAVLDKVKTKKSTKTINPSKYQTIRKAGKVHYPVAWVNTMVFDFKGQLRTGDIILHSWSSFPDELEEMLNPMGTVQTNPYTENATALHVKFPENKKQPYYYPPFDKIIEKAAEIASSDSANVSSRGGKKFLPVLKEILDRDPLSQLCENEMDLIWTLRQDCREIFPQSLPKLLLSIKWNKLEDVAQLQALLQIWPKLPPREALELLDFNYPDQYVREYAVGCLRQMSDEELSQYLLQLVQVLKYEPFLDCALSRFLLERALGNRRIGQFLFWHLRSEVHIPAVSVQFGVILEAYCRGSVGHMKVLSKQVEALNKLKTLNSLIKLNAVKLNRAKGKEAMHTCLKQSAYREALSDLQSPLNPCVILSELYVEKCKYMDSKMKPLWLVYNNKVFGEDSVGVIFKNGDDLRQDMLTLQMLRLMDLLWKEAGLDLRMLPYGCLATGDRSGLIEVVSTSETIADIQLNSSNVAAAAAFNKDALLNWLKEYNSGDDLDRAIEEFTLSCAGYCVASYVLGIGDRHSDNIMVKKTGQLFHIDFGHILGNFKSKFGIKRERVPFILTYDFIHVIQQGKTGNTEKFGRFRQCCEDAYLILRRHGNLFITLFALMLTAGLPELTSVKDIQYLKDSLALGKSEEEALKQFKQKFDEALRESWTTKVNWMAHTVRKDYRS
The experiment in a line: PI3K beta kinase assay (Kinase-Glo luminescence). The data set is classed as biochemical. Put shortly: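 Enzyme: BV949 p85(iSH2)-Gly linker-p110β FL-His, 25 nM. Substrate: PI 10 μg/mL. ATP: 1 μM, added to start. Buffer: Tris pH 7.5 10 mM, MgCl2 3 mM, NaCl 50 mM, CHAPS 0.05%, DTT 1 mM. RT, 60 min. Readout: Kinase-Glo. IC50 by 4-parameter fit.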

Turning to `COc1ccc(-c2ccc3ncc4c(c3c2)n(-c2cn(C)nc2C)c(=O)n4C)cn1` [Example 2.5, 1-(1,3-Dimethyl-1H-pyrazol-4-yl)-8-(6-methoxy-pyridin-3-yl)-3-methyl-1,3-dihydro-imidazo[4,5-c]quinolin-2-one], the IC50 was 9 nM in data set [1], 10 nM in data set [2] and 86 nM in data set [4]. The solubility in data set [3] was 13 µg/mL (≈ 32.5 µM).
For `COc1ncc(-c2ccc3ncc4c(c3c2)n(-c2cn(C)nc2C)c(=O)n4C)cc1N` [Example 127, 8-(5-Amino-6-methoxy-pyridin-3-yl)-1-(1,3-dimethyl-1H-pyrazol-4-yl)-3-methyl-1,3-dihydro-imidazo[4,5-c]quinolin-2-one] the same measures were 5 nM, 9 nM, 44 nM and 386 µg/mL (≈ 929 µM).
On the same counts, the results for `Cc1nn(C)cc1-n1c(=O)n(C)c2cnc3ccc(-c4ccnc(OC(C)C)c4)cc3c21` [Example 92, 1-(1,3-Dimethyl-1H-pyrazol-4-yl)-8-(2-isopropoxy-pyridin-4-yl)-3-methyl-1,3-dihydro-imidazo[4,5-c]quinolin-2-one] are 376 nM, 127 nM, 246 nM and 7 µg/mL (≈ 16.3 µM).
For `CCn1cc(-n2c(=O)n(C)c3cnc4ccc(-c5ccc(OC)c(OC)c5)cc4c32)c(C)n1` [Example 1.6, 8-(3,4-Dimethoxy-phenyl)-1-(1-ethyl-3-methyl-1H-pyrazol-4-yl)-3-methyl-1,3-dihydro-imidazo[4,5-c]quinolin-2-one], the IC50 is 10 nM in data set [1], 11 nM in data set [2] and 43 nM in data set [4]. Also, the solubility in data set [3] stood at 65 µg/mL (≈ 147 µM).
On the same counts, the results for `Cc1cc(-n2c(=O)n(C)c3cnc4ccc(-c5ccc(N(C)C)nc5)cc4c32)n(C)n1` [Example 4.6, 8-(6-Dimethylamino-pyridin-3-yl)-1-(2,5-dimethyl-2H-pyrazol-3-yl)-3-methyl-1,3-dihydro-imidazo[4,5-c]quinolin-2-one] are 42 nM, 91 nM, 336 nM and 6 µg/mL (≈ 14.5 µM).
On the same counts, the results for `Cn1nccc1-n1c(=O)n(C)c2cnc3ccc(-c4ccc(NCCO)nc4)cc3c21` [Example 21.1, 8-[6-(2-Hydroxy-ethylamino)-pyridin-3-yl]-3-methyl-1-(2-methyl-2H-pyrazol-3-yl)-1,3-dihydro-imidazo[4,5-c]quinolin-2-one] are 201 nM, 116 nM, 946 nM and over 415 µg/mL.
On the same counts, the results for `Cc1nn(C)cc1-n1c(=O)n(C)c2cnc3ccc(-c4cncc(NC5CCC5)c4)cc3c21` [Example 172, 8-(5-Cyclobutylamino-pyridin-3-yl)-1-(1,3-dimethyl-1H-pyrazol-4-yl)-3-methyl-1,3-dihydro-imidazo[4,5-c]quinolin-2-one] are under 3 nM, 33 nM, 146 nM and 11 µg/mL (≈ 25 µM).
For the compound `Cc1nn(C)cc1-n1c(=O)n(C)c2cnc3ccc(-c4cncc(N5CCC5)c4)cc3c21` [Example 179, 8-(5-Azetidin-1-yl-pyridin-3-yl)-1-(1,3-dimethyl-1H-pyrazol-4-yl)-3-methyl-1,3-dihydro-imidazo[4,5-c]quinolin-2-one], the IC50 came out at 13 nM in data set [1], 87 nM in data set [2] and 130 nM in data set [4]. The solubility in data set [3] was determined as 28 µg/mL (≈ 65.8 µM).
In the case of `COCc1ccc(-c2ccc3ncc4c(c3c2)n(-c2cn(C)nc2Cl)c(=O)n4C)cn1` [Example 203, 1-(3-Chloro-1-methyl-1H-pyrazol-4-yl)-8-(6-methoxymethyl-pyridin-3-yl)-3-methyl-1,3-dihydro-imidazo[4,5-c]quinolin-2-one], the results for the IC50 in data set [1], in data set [2] and in data set [4] were 15 nM, 8 nM and 104 nM, respectively. For the same compound, in data set [3], the solubility worked out at 12 µg/mL (≈ 27.6 µM).
On the same counts, the results for `Cc1cncc(-c2ccc3ncc4c(c3c2)n(-c2cn(C)nc2C)c(=O)n4C)c1` [Example 24, 1-(1,3-Dimethyl-1H-pyrazol-4-yl)-3-methyl-8-(5-methyl-pyridin-3-yl)-1,3-dihydro-imidazo[4,5-c]quinolin-2-one] are 37 nM, 41 nM, 26 nM and 25 µg/mL (≈ 65 µM).
On the same counts, the results for `Cc1nn(C(C)C)cc1-n1c(=O)n(C)c2cnc3ccc(-c4cnc(N)c(CO)c4)cc3c21` [Example 169.1, 8-(6-Amino-5-hydroxymethyl-pyridin-3-yl)-1-(1-isopropyl-3-methyl-1H-pyrazol-4-yl)-3-methyl-1,3-dihydro-imidazo[4,5-c]quinolin-2-one] are under 3 nM, 22 nM, 87 nM and 289 µg/mL (≈ 652 µM).
For `Cc1nn(C)cc1-n1c(=O)n(C)c2cnc3ccc(-c4cnc(N)c(Cl)c4)cc3c21` [Example 148.2, 8-(6-Amino-5-chloro-pyridin-3-yl)-1-(1,3-dimethyl-1H-pyrazol-4-yl)-3-methyl-1,3-dihydro-imidazo[4,5-c]quinolin-2-one] the same measures were 9 nM, 39 nM, 35 nM and 4 µg/mL (≈ 9.53 µM).
As to `CCOc1cc(-c2ccc3ncc4c(c3c2)n(-c2cn(C)nc2C)c(=O)n4C)cnc1CC` [Example 187, 1-(1,3-Dimethyl-1H-pyrazol-4-yl)-8-(5-ethoxy-6-ethyl-pyridin-3-yl)-3-methyl-1,3-dihydro-imidazo[4,5-c]quinolin-2-one], the results for the IC50 in data set [1], in data set [2] and in data set [4] were 8 nM, 8 nM and 28 nM, respectively. In addition, in data set [3], the solubility was 3 µg/mL (≈ 6.78 µM).
As for `CCN(C)c1ccc(-c2ccc3ncc4c(c3c2)n(-c2cn(C)nc2C)c(=O)n4C)cn1` [Example 98.1, 1-(1,3-Dimethyl-1H-pyrazol-4-yl)-8-[6-(ethyl-methyl-amino)-pyridin-3-yl]-3-methyl-1,3-dihydro-imidazo[4,5-c]quinolin-2-one], the IC50 in data set [1] amounted to 20 nM; in data set [2], 48 nM; in data set [4], 407 nM. In addition, the solubility in data set [3] is 8 µg/mL (≈ 18.7 µM).
On the same counts, the results for `Cc1nn(C)c(C)c1-n1c(=O)n(C)c2cnc3ccc(-c4ccc(CO)nc4)cc3c21` [Example 16.4, 8-(6-Hydroxymethyl-pyridin-3-yl)-3-methyl-1-(1,3,5-trimethyl-1H-pyrazol-4-yl)-1,3-dihydro-imidazo[4,5-c]quinolin-2-one] are 666 nM, 161 nM, 515 nM and over 414 µg/mL.
For `Cc1nn(C)cc1-n1c(=O)n(C)c2cnc3ccc(-c4ccc(N(C)C)nc4)cc3c21` [Example 4.5, 8-(6-Dimethylamino-pyridin-3-yl)-1-(1,3-dimethyl-1H-pyrazol-4-yl)-3-methyl-1,3-dihydro-imidazo[4,5-c]quinolin-2-one] the same measures were 22 nM, 17 nM, 213 nM and 7 µg/mL (≈ 16.9 µM).
On the same counts, the results for `CCOc1ccc(-c2ccc3ncc4c(c3c2)n(-c2cn(C(C)C)nc2C)c(=O)n4C)cn1` [Example 3.7, 8-(6-Ethoxy-pyridin-3-yl)-1-(1-isopropyl-3-methyl-1H-pyrazol-4-yl)-3-methyl-1,3-dihydro-imidazo[4,5-c]quinolin-2-one] are 23 nM, 43 nM, 537 nM and 3 µg/mL (≈ 6.78 µM).
Take `CCn1cc(-n2c(=O)n(C)c3cnc4ccc(-c5cncc(N)c5)cc4c32)c(C)n1` [Example 45.2, 8-(5-Amino-pyridin-3-yl)-1-(1-ethyl-3-methyl-1H-pyrazol-4-yl)-3-methyl-1,3-dihydro-imidazo[4,5-c]quinolin-2-one]: the IC50 in data set [1] amounted to 24 nM; in data set [2] it was 4 nM; in data set [4], 29 nM. In addition, the solubility in data set [3] is 10 µg/mL (≈ 25 µM).
For `CNC(=O)c1cc(-c2ccc3ncc4c(c3c2)n(-c2cn(C)nc2C)c(=O)n4C)cnc1OC` [Example 125.1, 5-[1-(1,3-Dimethyl-1H-pyrazol-4-yl)-3-methyl-2-oxo-2,3-dihydro-1H-imidazo[4,5-c]quinolin-8-yl]-2-methoxy-N-methyl-nicotinamide] the same measures were 51 nM, 26 nM, 61 nM and 6 µg/mL (≈ 13.1 µM).
